# Test results: patent publication US20230303483A1, “USE OF STROBILURIN TYPE COMPOUNDS FOR COMBATING PHYTOPATHOGENIC FUNGI CONTAINING AN AMINO ACID SUBSTITUTION F129L IN THE MITOCHONDRIAL CYTOCHROME B PROTEIN CONFERRING RESISTANCE TO QO […]” (BASF SE, priority 2020, published 2023)
# Legend:
# [1] = system: Phakopsora pachyrhizi (strain containing the amino acid substitution F129L in the mitochondrial cytochrome b protein); assay: Use example 2: protective control of soybean rust on soybeans (PHAKPA P6), inoculation six days after spraying; type: in vivo; settings: % diseased leaf area on soybean, 16 ppm spray, inoculation six days after treatment, untreated controls usually >85 %
# Method: (§1) The compound was dissolved in a mixture of acetone and/or dimethylsulfoxide and the wetting agent/emulsifier Wettol, which is based on ethoxylated alkylphenoles, in a ratio (volume) solvent-emulsifier of 99 to 1 to give a total volume of 5 ml. Subsequently, water was added to total volume of 100 ml. This stock solution was then diluted with the described solvent-emulsifier-water mixture to the final concentration given in the table below.
# Use example 2. Protective control of soybean rust on soybeans caused by Phakopsora pachyrhizi (PHAKPA P6)
# (§2) Leaves of potted soybean seedlings were sprayed to run-off with the previously described spray solution, containing the concentration of active ingredient as described below. The plants were allowed to air-dry. The trial plants were cultivated for six days in a greenhouse chamber at 23-27° C. and a relative humidity between 60 and 80 %. Then the plants were inoculated with spores of Phakopsora pachyrhizi. The strain used contains the amino acid substitution F129L in the mitochondrial cytochrome b protein conferring resistance to Qo inhibitors. To ensure the success the artificial inoculation, the plants were transferred to a humid chamber with a relative humidity of about 95 % and 23 to 27° C. for 24 hr. The trial plants were cultivated for up to 14 days in a greenhouse chamber at 23 to 27° C. and a relative humidity between 60 and 80 %. The extent of fungal attack on the leaves was visually assessed as % diseased leaf area, the disease level of untreated controls was usually higher than 85 %.
# (§3) All test results below are given for the control of phytopathogenic fungi containing the amino acid substitution F129L in the mitochondrial cytochrome b protein conferring resistance to Qo inhibitors.
# [2] = system: Phakopsora pachyrhizi (strain containing the amino acid substitution F129L in the mitochondrial cytochrome b protein); assay: Use example 1: protective control of soybean rust on soybeans (PHAKPA P2), inoculation 2 days after spraying; type: in vivo; settings: % diseased leaf area on soybean, 16 ppm spray, inoculation 2 days after treatment, untreated controls usually >85 %
# Method: as §1
# Use example 1. Protective control of soybean rust on soybeans caused by Phakopsora pachyrhizi (PHAKPA P2)
# as §2, with “active ingredient or their mixture as described” for “active ingredient as described”, “cultivated for 2 days in” for “cultivated for six days in”, “% and 20 to 24°” for “% and 23 to 27°”, “20 to 24° C. for” for “23 to 27° C. for”
# as §3
SMILES,PHAKPA Disease level (%) P6 at 16 ppm [1],PHAKPA Disease level (%) P2 at 16 ppm [2]
CO/N=C(/C(=O)OC)c1ccccc1CO/N=C(\C)C#Cc1ccc(OC2CC2)cc1 [Example 102],63%,80%
CO/N=C(/C(=O)OC)c1ccccc1CO/N=C(\C)C#Cc1cccc2c1OC(F)(F)O2 [Example 103],22%,28%
CNC(=O)/C(=N/OC)c1ccccc1CO/N=C(\C)C#Cc1ccc(OCC(F)(F)F)cc1 [Example 104],32%,53%
CNC(=O)/C(=N/OC)c1ccccc1CO/N=C(\C)C#Cc1ccc(OC2CC2)cc1 [Example 106],13%,23%
CNC(=O)/C(=N/OC)c1ccccc1CO/N=C(\C)C#Cc1c(Cl)cccc1Cl [Example 107],15%,27%
CO/N=C(/C(=O)OC)c1ccccc1CO/N=C(\C)C#Cc1c(C2CC2)cccc1C(F)(F)F [Example 108],87%,90%
CO/N=C(/C(=O)OC)c1ccccc1CO/N=C(\C)C#Cc1ccc(Cl)cc1C(C)C [Example 109],12%,11%
CNC(=O)/C(=N/OC)c1ccccc1CO/N=C(\C)C#Cc1ccc(Cl)cc1C(C)C [Example 110],2%,0%
CNC(=O)/C(=N/OC)c1ccccc1CO/N=C(\C)C#Cc1ccc(Oc2ccc(F)cc2)cc1 [Example 111],23%,33%
CNC(=O)/C(=N/OC)c1ccccc1CO/N=C(/C#Cc1ccc(Cl)cc1)COC [Example 112],25%,38%
COC/C(C#Cc1ccc(Cl)cc1)=N\OCc1ccccc1/C(=N\OC)C(=O)OC [Example 113],77%,87%
CO/C=C(/C(=O)OC)c1ccccc1CO/N=C(\C)C#Cc1ccc(F)cc1 [Example 114],0%,0%
CNC(=O)/C(=N/OC)c1ccccc1CO/N=C(\C)C#Cc1ccc(Cl)cc1-c1ccc(F)cc1 [Example 115],1%,2%
CO/N=C(/C(=O)OC)c1ccccc1CO/N=C(\C)C#Cc1ccc(Cl)cc1-c1ccc(F)cc1 [Example 118],4%,3%
CNC(=O)/C(=N/OC)c1ccccc1CO/N=C(\C)C#Cc1c(C2CC2)cccc1C(F)(F)F [Example 119],77%,77%
CNC(=O)/C(=N/OC)c1ccccc1CO/N=C(\C)C#Cc1ccc(OC(F)(F)F)cc1C1CC1 [Example 120],22%,15%
CO/N=C(/C(=O)OC)c1ccccc1CO/N=C(\C)C#Cc1ccc(OC(F)(F)F)cc1C1CC1 [Example 121],53%,87%
CO/C=C(/C(=O)OC)c1cccc(C)c1CO/N=C(\C)C#Cc1ccc(F)c(C(=O)OC)c1 [Example 122],60%,73%
CO/N=C(/C(=O)OC)c1cccc(C)c1CO/N=C(\C)C#Cc1ccc(F)c(C(=O)OC)c1 [Example 123],37%,43%
CO/C=C(/C(=O)OC)c1cccc(C)c1CO/N=C(\C)C#Cc1ccc(F)cc1C(=O)OC [Example 124],53%,14%
CO/N=C(/C(=O)OC)c1cccc(C)c1CO/N=C(\C)C#Cc1ccc(F)cc1C(=O)OC [Example 125],45%,17%
CO/N=C(/C(=O)OC)c1cccc(C)c1CO/N=C(\C)C#Cc1ccc(F)cc1C(=O)OC [Example 127],47%,53%
